Test results reported in US7979117B2, “Device and method for controlled delivery of active substance into the skin” (Power Paper Ltd., priority 2001, dated 2011).
Several values for one entry are separate records, joined by “and”; a condition that tells them apart may be missing. Equal values may be shown once.

Assay: Dual chamber in-vitro skin penetration test (iontophoresis vs passive)
Format: in vitro ADME, Porcine
Description: One type of skin penetration test can be implemented in-vitro by using excised swine skin membrane with two electrodes placed thereon, with one of the two being associated with a formulation including an active substance to be delivered by iontophoresis, as described, for example in: P. Glikfeld, C. Cullander, R. S. Hinz, and R. H. Guy, A new system for in vitro studies of iontophoresis, Pharm. Res. 5: 443-446 (1988) (hereinafter, the “dual chamber in-vitro test”). Description of the experimental design of an in-vitro skin penetration test is provided in Example No. 1. In a non-limiting way, any of the following parameters can be varied and tested with this model: voltage, current and current density, concentration of an active substance, pH, viscosity, concentration of a buffer, concentration of an electrolyte, concentration of a polymeric substance which is used to render certain rheological properties, conductivity, viscosity and adhesiveness. The influence of pore size and density of a substrate can also be assessed in a modified in-vitro skin penetration test. Delivery of the active substance into and through the skin will be determined as a function of the time of current passage.
Example No. 1 was devised to define, in a preclinical study, the optimal iontophoretic parameters for the delivery of an active substance contained in a cosmetic carrier into the skin, while minimizing systemic exposure.
In general, the active agent is formulated in a buffered, conducting solution, gel, cream, or any other optional cosmetically acceptable carrier. Competing ions are kept to a minimum. Iontophoresis is performed in vertical diffusion cells, in which the skin membrane separates the physically- and electrically-isolated anode and cathode chambers from the receptor phase, or in modified side-by-side cells of a newer design. The anode and receptor compartments contain physiologically-buffered saline at pH 7, while the cathode compartment is charged with the gel containing the active.
The skin membrane is from the porcine ear (Alternatively, human (cadaver) or nude mouse skin can be used). The skin is excised with a dermatome set to an approximate depth of 500 μm. The area of skin exposed in each electrode compartment is 0.64 cm^2.
The electrodes transmitting the electrical current are made of Ag/AgCl or graphite, prepared in a customary fashion. A constant current is passed between the electrodes and controlled by a custom-built power supply (Professional Design and Development Services, Berkeley, Calif.).
In each study, preparation, with electrical current (“Iontophoretic System”) and without electrical current (“Control”), are tested. Exposure period is 20-30 minutes. Six replicates are performed per experiment. Prior to each experiment, the viability and integrity of skin barrier function is checked via a measurement of transepidermal water loss (TEWL).
At the end of the exposure period, the entire receptor compartment is drained and the solution reserved for subsequent analysis of the active agent(s) (“Active”). The skin is removed, and the surfaces carefully cleaned and dried. Subsequently, the stratum corneum (“SC”) beneath the cathode chamber is removed by repeated 15 adhesive tape strippings (“TS”). The Active is extracted from the respective tapes and assayed to yield a total uptake of the compound into the SC. The remaining SC-stripped skin from beneath the cathode is then appropriately treated so as to recover the Active, which had crossed the SC barrier, during iontophoresis, and reached into the underlying epidermis/upper dermis. The Active is determined quantitatively using customary analytical procedures (e.g., HPLC, UV spectrum, GC, radiolabeled detection, etc.), as applicable.
Results of an In-Vitro Skin Penetration Test for Magnesium Ascorbyl Phosphate (MAP) Aqueous Solution, Using the “Dual Chamber In-Vitro Test”
Active Substance: Magnesium Ascorbyl Phosphate (MAP) (Vitamin C Derivative) […]

[1] = Iontophoretic System, 3% in distilled water, 25 mg applied, pH 7.0-7.4, 0.150 mA/cm^2, 30 minutes, individual cell
[2] = Iontophoretic System, 3%, 0.150 mA/cm^2, 30 minutes, Mean of 6 cells
[3] = Passive Control (without electrical current)

Amount of Active, Receptor (transferred through the skin) [2]: 43 µg and 43.15 µg
Amount of Active, TS # 1, 2 [2]: 73.77 µg
Amount of Active, TS # 3-15 [2]: 42.06 µg
Amount of Active, TS Total [2]: 115.82 µg
mean amount found in the receptor [3]: 2 µg
mean total amount found in tape strippings #1-15, compared with Iontophoretic System [3]: in the same order of magnitude
SMILES: O=C1O[C@H]([C@@H](O)CO)C([O-])=C1OP(=O)([O-])[O-].O=C1O[C@H]([C@@H](O)CO)C([O-])=C1OP(=O)([O-])[O-].[Mg+2].[Mg+2].[Mg+2] [MAP, Magnesium Ascorbyl Phosphate]
Amount of Active, Receptor [1]: 47.66 µg and 122.75 µg and 14.62 µg and 23.47 µg and 24.99 µg and 25.43 µg
Amount of Active, TS # 1, 2 [1]: 92.41 µg and 50.37 µg and 103.88 µg and 132.28 µg and 48.43 µg and 89.89 µg
Amount of Active, TS # 3-15 [1]: 89.22 µg and 2.94 µg and 115.27 µg and 43.90 µg and 8.71 µg and 50.43 µg
Amount of Active, TS Total [1]: 181.63 µg and 53.31 µg and 219.15 µg and 176.18 µg and 57.14 µg and 140.32 µg
Amount of Active, Viable Skin [1]: 33.94 µg and 4.55 µg and 56.67 µg and 8.44 µg and 19.24 µg and 10.30 µg
Total TS # 3-15 + Viable Skin [1]: 123.16 µg and 7.49 µg and 171.94 µg and 52.34 µg and 27.95 µg and 60.73 µg
Total TS # 3-15 + Viable skin [1]: 183.82 μg/cm2 and 11.18 μg/cm2 and 256.63 μg/cm2 and 78.12 μg/cm2 and 41.72 μg/cm2 and 10.89 μg/cm2
Amount of Active, Viable Skin [2]: 23 µg and 23.07 µg
Total TS # 3-15 + Viable Skin (amount in the skin) [2]: 65 µg and 65.13 µg
Total TS # 3-15 + Viable skin [2]: 97.21 μg/cm2
total amount found in the skin (TS#1-15+ Viable skin) (Iontophoretic System, 3%, 0.150 mA/cm^2, 30 minutes, mean): 139 µg
mean amount found in the viable skin [3]: 1 µg
